In patent US20040086901A1, “Database for analyzing gene function and method of analyzing gene function by dspa” (priority 2000, published 2004):

Tests used:
Assay type in all cases: cell-based, mouse
[1] = tested on: NIH3T3 cells overexpressing CaMKIIa-Active; experiment: MTT cell viability, CaMKIIa-Active overexpressing cells vs parental line; settings: CaMKIIa-Active high-expressing cells / parental cell line, 3 to 4 days
Method: (§1) With regard to the function-known genes, the genes shown in the left column of Table 2 were used. With regard to the drugs, those shown in Table 1 were dissolved in DMSO to an extent of 100-fold of the maximum concentration for the search of the drugs and used. With regard to the cells, incubated NIH3T3 or ras-NIH3T3 cells were used.
(§2) Full-length cDNA of each function-known genes was incorporated into an expression vector (pRc-CMV, etc.) and transfected into NIH3T3 cells by a common method. Transformed cells were isolated using the resistance to G-418 as an index and the expression of the transfected gene in each cell was investigated by Western blotting method to select a highly expressing line.
(§3) Cell viabilities were measured according to the following procedures.
(§4) 1) From the 2nd to the 11th rows of a 96-well plate were filled with DMEM (50 μl). The 12th row was filled with 100 μl of DMEM.
(§5) 2) The 1st row was filled with 98 μl of DMEM.
(§6) 3) Drugs (2 μl each) were added into the 1st row.
(§7) 4) Continuous double-dilution was conducted from the 1st to the 9th rows. Fifty μl were taken out from the 9th row and discarded. The plate was preserved in a CO2 incubator.
(§8) 5) Cells (each high-expressing cells and the parental cell line) were detached from the medium using a trypsin solution, suspended in 10% CS-DMEM and transferred to a test tube and cell numbers (cell/ml) were counted.
(§9) 6) The cells were diluted to a concentration of 1×10^5 cells/ml, and 50 μl of the cell suspension were added to the 1st to the 11th rows of the plate followed by gently stirring.
(§10) 7) The plate was transferred to the CO2 incubator and incubated for 3 to 4 days.
(§11) 8) MTT (5 mg/ml in PBS) (10 μl) was added to the 1st to the 12th rows of the plate and incubated in the CO2 incubator at 37° C. for 4 hours.
(§12) 9) A reaction stop solution (0.04N HCl in isopropanol) (150 μl) was added followed by mixing well and being allowed to stand at room temperature for about 2 hours.
(§13) 10) Coloration of formazan which was a metabolite of the MTT dye was measured using a microplate reader. The measurement wavelength was 574 nm and the reference wavelength was 655 nm. The 10th and the 11th rows of the plate were 100% controls and the 12th row was a 0% control.
(§14) As an index for the sensitivity of highly gene-expressing cells and the parental cell line to various drugs, each of the IC40 values thereof was specified and ratios of the IC40 values were calculated. FIG. 2 and FIG. 3 are the examples where ratios of IC40 values were calculated from a curve showing the dependency on the concentration of the chemical versus the viability. After that, logarithmic values of ratios of IC40 values were calculated from each gene.

[2] = tested on: NIH3T3 cells overexpressing ERK-DN; experiment: MTT cell viability, ERK-DN overexpressing cells vs parental line; settings: ERK-DN high-expressing cells / parental cell line, 3 to 4 days
Method: as §1, §2, §3, §4, §5, §6, §7, §8, §9, §10, §11, §12, §13
(§15) As an index for the sensitivity of highly gene-expressing cells and the parental cell line to various drugs, each of the IC40 values thereof was specified and ratios of the IC40 values were calculated. […] After that, logarithmic values of ratios of IC40 values were calculated from each gene.

[3] = tested on: NIH3T3 cells overexpressing HSP9O; experiment: MTT cell viability, HSP9O overexpressing cells vs parental line; settings: HSP9O high-expressing cells / parental cell line, 3 to 4 days
Method: as §1, §2, §3, §4, §5, §6, §7, §8, §9, §10, §11, §12, §13, §14

[4] = tested on: NIH3T3 cells overexpressing C/EBPa; experiment: MTT cell viability, C/EBPa overexpressing cells vs parental line; settings: C/EBPa high-expressing cells / parental cell line, 3 to 4 days
Method: as §1, §2, §3, §4, §5, §6, §7, §8, §9, §10, §11, §12, §13, §15

[5] = tested on: NIH3T3 cells overexpressing Gluco-corticoid-R; experiment: MTT cell viability, Gluco-corticoid-R overexpressing cells vs parental line; settings: Gluco-corticoid-R high-expressing cells / parental cell line, 3 to 4 days
Method: as §1, §2, §3, §4, §5, §6, §7, §8, §9, §10, §11, §12, §13, §15

[6] = tested on: NIH3T3 cells overexpressing RhoA-DN; experiment: MTT cell viability, RhoA-DN overexpressing cells vs parental line; settings: RhoA-DN high-expressing cells / parental cell line, 3 to 4 days
Method: as §1, §2, §3, §4, §5, §6, §7, §8, §9, §10, §11, §12, §13, §15

[7] = tested on: NIH3T3 cells overexpressing C/EBPb; experiment: MTT cell viability, C/EBPb overexpressing cells vs parental line; settings: C/EBPb high-expressing cells / parental cell line, 3 to 4 days
Method: as §1, §2, §3, §4, §5, §6, §7, §8, §9, §10, §11, §12, §13, §15

For `COC[C@H]1OC(=O)c2coc3c2[C@@]1(C)C1=C(C3=O)[C@@H]2CCC(=O)[C@@]2(C)C[C@H]1OC(C)=O` [Wortmannin, wortmannin], the “logarithmic value of ratio of IC40 values” [1] was 0.18, the “logarithmic value of ratio of IC40 values” [2] was −0.11 and the “logarithmic value of ratio of IC40 values” [3] was 0.18. For the same compound, the “logarithmic value of ratio of IC40 values” [4] was 0.00, the “logarithmic value of ratio of IC40 values” [5] was 0.09 and the “logarithmic value of ratio of IC40 values” [6] was 0.00. For the same compound, the “logarithmic value of ratio of IC40 values” [7] was 0.34.

`CCCC[C@@H](C)/C=C(C)/C=C(\C)C(=O)NC1=C[C@@](O)(/C=C/C=C/C=C/C(=O)NC2=C(O)CCC2=O)[C@@H]2O[C@@H]2C1=O` [Manumycin, manumycin] was tested, and the “logarithmic value of ratio of IC40 values” [1] was 0.03, the “logarithmic value of ratio of IC40 values” [2] was −0.05 and the “logarithmic value of ratio of IC40 values” [3] was −0.13. For the same compound, the “logarithmic value of ratio of IC40 values” [4] was 0.00, the “logarithmic value of ratio of IC40 values” [5] was 0.09 and the “logarithmic value of ratio of IC40 values” [6] was −0.13. The “logarithmic value of ratio of IC40 values” [7] was 0.47.

In the case of `COc1ccc2c(c1)CC[C@@H]1[C@@H]2CC[C@]2(C)[C@@H](NCCCCCCN3C(=O)C=CC3=O)CC[C@@H]12` [U73122], the “logarithmic value of ratio of IC40 values” [1] is reported as 0.00, the “logarithmic value of ratio of IC40 values” [2] is reported as 0.00 and the “logarithmic value of ratio of IC40 values” [3] is reported as 0.18. The “logarithmic value of ratio of IC40 values” [4] was 0.00, the “logarithmic value of ratio of IC40 values” [5] was 0.05 and the “logarithmic value of ratio of IC40 values” [6] was −0.35. The “logarithmic value of ratio of IC40 values” [7] was 0.10.

With `O=c1c(-c2ccc(O)cc2)coc2cc(O)cc(O)c12` [Genistein, genistein] the “logarithmic value of ratio of IC40 values” [1] was 0.23, the “logarithmic value of ratio of IC40 values” [2] was 0.00 and the “logarithmic value of ratio of IC40 values” [3] was 0.41. The “logarithmic value of ratio of IC40 values” [4] was −0.43, the “logarithmic value of ratio of IC40 values” [5] was 0.02 and the “logarithmic value of ratio of IC40 values” [6] was 0.00. The “logarithmic value of ratio of IC40 values” [7] was 0.19.

`O=[As]O` [NaAsO2, sodium arsenite] was tested, and the “logarithmic value of ratio of IC40 values” [1] was 0.02, the “logarithmic value of ratio of IC40 values” [2] was 0.16 and the “logarithmic value of ratio of IC40 values” [3] was 0.10. The “logarithmic value of ratio of IC40 values” [4] was −0.40, the “logarithmic value of ratio of IC40 values” [5] was 0.16 and the “logarithmic value of ratio of IC40 values” [6] was 0.00. The “logarithmic value of ratio of IC40 values” [7] was 0.41.

In the case of `CNc1ccc2oc(C[C@H]3O[C@@]4(CC[C@H]3C)O[C@H]([C@H](C)C(=O)c3ccc[nH]3)[C@H](C)C[C@H]4C)nc2c1C(=O)O` [A23187], the “logarithmic value of ratio of IC40 values” [1] is reported as 0.18, the “logarithmic value of ratio of IC40 values” [2] is reported as 0.00 and the “logarithmic value of ratio of IC40 values” [3] is reported as 0.28. The “logarithmic value of ratio of IC40 values” [4] was 0.00, the “logarithmic value of ratio of IC40 values” [5] was 0.28 and the “logarithmic value of ratio of IC40 values” [6] was 0.03. The “logarithmic value of ratio of IC40 values” [7] was 0.25.
